Test results: patent publication US8318785B2, “Pharmaceutical compounds” (Orion Corporation, priority 2005, dated 2012)

Columns and labels:
[1] = target: T1, recombinant human soluble form of COMT (hS-COMT) (Homo sapiens, UniProt P21964); assay: Determination of COMT inhibiting activity in vitro; assay type: biochemical; details: tight binding inhibition constant, 25 μM SAM, substrate esculetin 10 μM, pH 7.4, 37° C.
T1 sequence (P21964 1-221 isoform P21964-2): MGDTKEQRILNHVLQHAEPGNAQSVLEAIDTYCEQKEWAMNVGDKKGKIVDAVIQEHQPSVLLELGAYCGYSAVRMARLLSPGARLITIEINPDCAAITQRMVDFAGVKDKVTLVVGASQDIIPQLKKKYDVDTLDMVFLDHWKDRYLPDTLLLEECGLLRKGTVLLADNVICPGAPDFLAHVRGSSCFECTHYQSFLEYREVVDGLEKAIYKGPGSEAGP

[2] = Determination of metabolic stability in vitro (glucuronidation); assay type: in vitro ADME; details: entacapone = 1.00; human liver microsomes 0.4 mg/ml, UDPGA 5 mM, test substance 100 μM, 60 min at 37° C.; glucuronide HPLC area relative to entacapone
[3] = system: isolated rat liver mitochondria; assay: Determination of uncoupling of oxidative phosphorylation in vitro; details: threshold value of uncoupling (sample/Control slope ratio exceeding 2); oxygen consumption of rat liver mitochondria; tested 1-50 μM

SMILES	Ki [1] [nM]	Relative glucuronidation [2]	Uncoupling [3] [µM]
CCOC(=O)c1sc2c([N+](=O)[O-])c(O)c(O)cc2c1Cl [Compound of example 5, 3-Chloro-5,6-dihydroxy-7-nitro-benzo[b]thiophene-2-carboxylic acid ethyl ester]	1.5	–	–
O=[N+]([O-])c1c(O)c(O)cc2c(Cl)csc12 [Compound of example 7, 3-Chloro-5,6-dihydroxy-7-nitro-benzo[b]thiophene]	1.5	–	–
O=C(c1sc2c([N+](=O)[O-])c(O)c(O)cc2c1Cl)N1CCOCC1 [Compound of example 8, (3-Chloro-5,6-dihydroxy-7-nitro-benzo[b]thiophen-2-yl)-morpholin-4-yl-methanone]	0.6	–	–
O=C(O)c1cccc(NC(=O)c2sc3c([N+](=O)[O-])c(O)c(O)cc3c2Cl)c1 [Compound of example 12, 3-[(3-Chloro-5,6-dihydroxy-7-nitro-benzo[b]thiophene-2-carbonyl)-amino]-benzoic acid]	0.6	0.03	–
O=C(O)c1ccc(NC(=O)c2sc3c([N+](=O)[O-])c(O)c(O)cc3c2Cl)cc1 [Compound of example 13, 4-[(3-Chloro-5,6-dihydroxy-7-nitro-benzo[b]thiophene-2-carbonyl)-amino]-benzoic acid]	0.2	–	–
O=C(c1cc2cc(O)c(O)c([N+](=O)[O-])c2s1)N1CCOCC1 [Compound of example 16, (5,6-Dihydroxy-7-nitro-benzo[b]thiophen-2-yl)-morpholin-4-yl-methanone]	0.9	<0.01	–
O=C1OCc2c1cc(O)c(O)c2[N+](=O)[O-] [Compound of example 23, 5,6-Dihydroxy-4-nitro-3H-isobenzofuran-1-one]	2	0.26	–
O=[N+]([O-])c1ccc(O)c([N+](=O)[O-])c1 [DNP, dinitrophenol]	–	–	10
